Molecular target: T1, human vitamin D receptor (VDR) (Homo sapiens, UniProt P11473)
T1 construct: expressed in transfected cells; host or cells: HEK293 cells (ATCC), transient transfection
T1 sequence (P11473 127-423 limits assumed): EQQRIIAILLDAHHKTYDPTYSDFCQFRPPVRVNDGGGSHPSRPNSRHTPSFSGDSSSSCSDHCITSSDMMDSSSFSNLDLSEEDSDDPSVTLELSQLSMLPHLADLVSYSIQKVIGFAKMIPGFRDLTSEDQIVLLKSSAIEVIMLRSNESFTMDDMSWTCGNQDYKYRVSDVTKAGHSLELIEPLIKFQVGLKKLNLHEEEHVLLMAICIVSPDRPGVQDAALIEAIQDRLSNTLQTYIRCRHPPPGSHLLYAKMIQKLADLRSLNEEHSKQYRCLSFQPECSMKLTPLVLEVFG
Assay: Human vitamin D receptor (VDR) agonist activity, GAL4-VDR LBD luciferase transactivation assay in transiently transfected HEK293 cells
Format: cell-based
Settings: hybrid VDR-GAL4 receptor, pFR-Luc luciferase reporter, 16 h incubation, read-out: Effective concentrations of half maximal activation (EC50)
Text: By way of example, the human vitamin D receptor (VDR) agonist activity of the claimed compounds can be tested using a cell based transactivation assay in an eukaryotic cell line. After a co-transfection, using a reporter plasmid construct and a hybrid receptor construct containing the ligand-binding domain of the human VDR linked to the DNA-binding domain of the yeast transcription factor GAL4, the cultured cells were stimulated by the VDR agonists. The hybrid VDR-GAL4 receptor binds the VDR agonists and transactivates luciferase reporter expression through the GAL4-response elements in the promoter of the luciferase gene (reporter construct). The VDR agonist binding and transactivation is determined by measuring the luciferase luminescence activity. The effective concentration of half maximal activation (EC50) was determined for the VDR agonists by means of dose-response experiments. The details of the protocol method of this test according to the invention are described in the example section. […]

SMILES	EC50
CC/C(=C\C=C\C(O)(CC)CC)c1cccc(CCc2ccc(CO)c(C(C)O)c2)c1 (racemic) [Comp1]	113 nM
CC/C(=C\C=C\C(O)(CC)CC)c1cccc(CCc2ccc(C(C)O)c(CO)c2)c1 (racemic) [I-a, (4E,6E)-3-ethyl-7-(3-(4-(1-hydroxyethyl)-3-(hydroxymethyl)phenethyl)phenyl)nona-4,6-dien-3-ol]	7 nM

Source: patent US10849838B2, “Biaromatic vitamin D analogs” (DSM IP ASSETS B.V., priority 2015, dated 2020)
